Test results published in paper PMC6754136 (PLoS ONE, 2019).
“Also recorded” adds a separate entry of the source. Read-outs that look alike come from different tables or passages of the source. Blank lines part the entries; values can stand above or below the molecule they belong to.

Experiments:
[1] = mitochondrial viability assay with resazurin; assay type: cell-based, human; settings: human, 0.01–10 μM; for viability at 3 days, 10 μM: four cell lines, even at the highest concentration tested (10 μM)
Description: (§1) The human cell lines SH-SY5Y (SY5Y, ATCC CRL-2266), SK-MEL-5 (SKMEL-5, ATCC HTB-70), and NCI-H187 (H187, ATCC CRL-5804) were cultured in RPMI medium supplemented with 10% FBS and no antibiotics. These three cell lines were generously provided by the laboratory of Susan Lindquist via Luke Whitesell (currently at the University of Toronto, Toronto, ON, Canada). BJ-hTERT (described in [27], generously provided by Robert Weinberg, Whitehead Institute, Cambridge MA, USA) was cultured in 4:1 DMEM:M199 medium supplemented with 15% FBS and no antibiotics. All cell lines were grown and assayed at 37 °C, 5% CO2. All cell lines were screened for mycoplasma contamination by PCR (Mycoscope Detection Kit, Fisher Scientific) before use in assays.
(§2) For viability assays, cells were plated in black, clear bottom 384-well tissue culture-treated plates (Corning) and incubated overnight in the media described above but supplemented with 50 U/mL penicillin-streptomycin antibiotic (Life Technologies). Then, DMSO (no drug controls) and PDE5 inhibitors (0.01–10 μM; synthesized as described above or purchased from Selleck Chemicals) were added using a Hewlett-Packard D300 Digital Dispenser (Tecan) and incubated for 3 days. Maximum DMSO concentration was normalized to 0.1% of the total well volume for all wells. Resazurin (R & D Systems) was diluted 1:20 into each well and incubated for up to 4 hours. Fluorescence was read in a Tecan plate reader (excitation = 570 nm, emission = 585 nm). Wells treated with PDE5 inhibitors were normalized against control wells treated with DMSO to measure percent mitochondrial viability (100 = no effect on mitochondrial viability).

[2] = tested on: SH-SY5Y, SK-MEL-5, BJ-hTERT and NCI-H187 cell lines; test: mitochondrial viability assay with resazurin; assay type: cell-based, human; settings: 0.01–10 μM, 3 days
Description: as §1, §2

[3] = biological target: purified recombinant human PDE5 (Homo sapiens, UniProt O76074); test: in vitro PDE5 inhibition assay measuring GMP production from cGMP (HPLC-UV-MS); assay type: biochemical; settings: for Fold improved potency (fold change in IC50 compared to icariin): relative to icariin
Description: STRENDA guidelines were considered in the description of the following enzyme activity assays. PDE5 inhibition and kinetics assays were carried out according to the method of Kincaid and Manganiello [31] and Dell’Agli et al. 1 nM recombinant human PDE5 (catalytic domain consisting of amino acids 537–875, Abcam, ab125581) was pre-incubated with PDE5 inhibitors (synthesized in-house as described above or purchased from Selleck Chemicals) in 40 mM tris-hydrochloric acid, pH 7.8, containing 10 mM MgCl2. […]. PDE5 inhibitors were added to each reaction using a Hewlett-Packard D300 Digital Dispenser (Tecan). Maximum DMSO concentration was 0.1% of the final reaction volume for all samples. After incubation at 25 °C for 5 minutes to allow interaction between PDE5 and drugs, the reaction was started with the addition of 0.3 μM cGMP (Enzo Life Sciences, Inc.) and incubated at 25 °C for 15 minutes. The final reaction volume was 100 μL. Reactions were stopped with the addition of 100 μL of 0.1 M HCl and neutralized by adding 0.1 M NaOH until the pH was 7. […] The amount of GMP produced was measured by HPLC-UV-MS as described in the general procedures. Reaction mixture components were separated with a ramp gradient of solvent A and B run at a flow rate of 0.5 mL/min as follows: 0–4 minutes 0% B, 4–7 minutes 0–95% B, 7–8 minutes 95% B, 8–11.1 minutes 0% B. GMP was measured using selected reaction monitoring in positive mode for a centroid center mass of 152.
A calibration curve using known concentrations of GMP was generated using the HPLC-UV-MS method described above to quantify the absolute amount of GMP in each reaction (S13 Fig). The linear range was from 5.9 nM to 3 μM. The limit of detection (LOD), defined as the lowest concentration producing a detectable peak above background, was 0.1 nM. The lower limit of quantification (LLOQ), defined as the lowest concentration used to generate a standard curve with r^2 > 0.95, was 5.9 nM. The upper limit of quantification (ULOQ), defined as the highest concentration used to generate a standard curve with r^2 > 0.95, was 3 μM. A GMP calibration curve was generated with each individual run of the HPLC-UV-MS.
To measure the IC50 as a result of treatment with each icariin analog, the in vitro inhibition enzyme assay as described above was performed, and GMP levels were normalized to no-drug controls and multiplied by 100 to obtain the percent PDE5 activity. IC50 mean ± SEM values were determined by nonlinear-regression fitting of the percent PDE5 activity data using the [inhibitor] vs response–variable slope (four parameters) equation in Prism (version 7.0a and version 8). Top value was constrained to 100, all other parameters were unconstrained. To obtain the dose-response curves for visual confirmation of the best-fit line, we executed a nonlinear regression fitting using the log(inhibitor) vs. response—variable slope (four parameters) equation in Prism. […] AICc analysis (built into Prism) was used to confirm the best-fitting inhibition model. […] Inhibition models were also compared via visual inspection of the fit of the calculated curves on the Michaelis-Menten plots.

[4] = tested on: human PDE5; settings: PDE5, competitive inhibitors; cited from earlier work
[5] = tested on: PDE6 isoforms; design: method as in PMID 16780568, PMID 16123402; settings: cited from earlier work
[6] = biological target: T1, bovine trypsin (Bos taurus, UniProt P00760); test: PAINS assay: non-specific inhibition of trypsin; assay type: biochemical; settings: 1x and 10x the PDE5 IC50 (3 and 7 also 50x, 250x); luteolin 50, 100, 250 μM
T1 construct: purchased Sigma-Aldrich T1426
T1 sequence (P00760 24-246): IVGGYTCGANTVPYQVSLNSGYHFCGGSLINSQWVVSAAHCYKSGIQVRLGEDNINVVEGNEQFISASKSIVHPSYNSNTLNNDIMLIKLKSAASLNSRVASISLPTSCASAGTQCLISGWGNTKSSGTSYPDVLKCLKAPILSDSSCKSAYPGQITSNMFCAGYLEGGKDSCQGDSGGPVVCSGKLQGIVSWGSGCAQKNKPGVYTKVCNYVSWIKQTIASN
Description: In assay buffer (50 mM Tris-HCl, 20 mM CaCl2, pH 8.19 with or without 0.5% igepal), 0.002 mg freshly made trypsin is incubated with drugs for 5 minutes at 25 °C. 1 mM of substrate (Nα-benzoyl-L-arginine 4-nitroanilide hydrochloride, Sigma-Aldrich, B3133) is added to start the reaction. Final reaction volume is 100 μl. Product formation is monitored by increasing absorbance at 410 nm at 25 °C for 30 minutes in kinetic mode using a SpectraMax M5 plate reader (Molecular Devices). All values were measured in duplicate.

[7] = biological target: recombinant human PDE5 (Homo sapiens, UniProt O76074); test: in vitro PDE5 kinetics assay (nonlinear regression, AICc model comparison); assay type: biochemical
Description: guidelines were considered in the description of the following enzyme activity assays. […] For kinetics assays, 0.015, 0.05, and 0.2 μM of compounds 3 and 7 were used. […] Maximum DMSO concentration was 0.1% of the final reaction volume for all samples. […] The final reaction volume was 100 μL. Reactions were stopped with the addition of 100 μL of 0.1 M HCl and neutralized by adding 0.1 M NaOH until the pH was 7. […] Reaction mixture components were separated with a ramp gradient of solvent A and B run at a flow rate of 0.5 mL/min as follows: 0-4 minutes 0% B, 4-7 minutes 0-95% B, 7-8 minutes 95% B, 8-11.1 minutes 0% B. GMP was measured using selected reaction monitoring in positive mode for a centroid center mass of 152. […] Top value was constrained to 100, all other parameters were unconstrained. To obtain the dose-response curves for visual confirmation of the best-fit line, we executed a nonlinear regression fitting using the log(inhibitor) vs. response-variable slope (four parameters) equation in Prism. […] AICc analysis (built into Prism) was used to confirm the best-fitting inhibition model. […] Inhibition models were also compared via visual inspection of the fit of the calculated curves on the Michaelis-Menten plots.

[8] = biological target: T2, partially purified recombinant human PDE6C (Homo sapiens, UniProt P51160); test: PDE6C inhibition assay (GMP production); assay type: biochemical; settings: for PDE6C inhibition, statistical significance: at 50x the PDE5 IC50, vs theoretical uninhibited mean of 100%
T2 construct: partially purified recombinant full-length human PDE6C; purchased SB Drug Discovery; host or cells: insect cells
T2 sequence (P51160 whole entry): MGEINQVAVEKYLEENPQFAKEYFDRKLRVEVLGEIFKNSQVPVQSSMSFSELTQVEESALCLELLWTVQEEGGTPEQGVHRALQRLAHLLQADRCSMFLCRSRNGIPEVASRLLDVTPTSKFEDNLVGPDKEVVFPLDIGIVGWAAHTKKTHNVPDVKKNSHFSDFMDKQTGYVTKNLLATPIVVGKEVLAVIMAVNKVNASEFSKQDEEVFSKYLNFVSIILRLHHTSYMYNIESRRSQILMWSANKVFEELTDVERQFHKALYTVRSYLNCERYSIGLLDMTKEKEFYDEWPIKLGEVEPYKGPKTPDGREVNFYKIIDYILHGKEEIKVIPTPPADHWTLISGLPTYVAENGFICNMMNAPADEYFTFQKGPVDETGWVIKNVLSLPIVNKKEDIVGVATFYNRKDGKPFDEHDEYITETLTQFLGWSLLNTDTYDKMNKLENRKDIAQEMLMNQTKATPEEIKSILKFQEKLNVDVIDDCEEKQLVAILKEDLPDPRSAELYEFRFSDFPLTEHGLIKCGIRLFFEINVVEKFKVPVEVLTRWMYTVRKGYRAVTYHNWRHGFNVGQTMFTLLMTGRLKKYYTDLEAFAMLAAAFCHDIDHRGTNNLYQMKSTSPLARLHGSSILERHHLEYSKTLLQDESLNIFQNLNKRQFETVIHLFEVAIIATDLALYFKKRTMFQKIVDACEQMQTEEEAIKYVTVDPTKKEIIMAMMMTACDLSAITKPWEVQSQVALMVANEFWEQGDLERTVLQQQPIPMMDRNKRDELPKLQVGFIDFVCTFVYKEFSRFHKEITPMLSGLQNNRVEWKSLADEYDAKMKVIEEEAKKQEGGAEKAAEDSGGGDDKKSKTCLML
Description: PDE6C inhibition was measured using the same method as described for PDE5 with modifications. […] The final reaction volume was 50 μL. […] Reactions were stopped as described above for PDE5 enzyme assays, and GMP was quantified as described above. […] The amount of GMP produced in these samples was subtracted from all samples before normalizing against untreated controls.

[9] = tested on: BJ-hTERT cells; test: cellular GMP levels after inhibitor treatment; assay type: cell-based, human; settings: 20 μM inhibitor, 1 hour; mean ± SEM; p<0.001
Description: For assaying PDE5 inhibitor effects on GMP levels in a cell line, BJ-hTERT cells were plated in 6-well plates (Corning) in the media described above. When cells were 80% confluent, fresh, pre-warmed media with DMSO (untreated controls) or 20 μM sildenafil, 3, or 7 was added and incubated for 1 hour. Maximum DMSO concentration in all samples was 0.2% of the total well volume. Cells were washed once with cold 0.9% NaCl. 800 μL of 80:20 methanol:water spiked with 500 nM isotopically labeled amino acids as internal standards was added while cells were on dry ice. Cells were detached with a cell scraper. Extracts were vortexed for 10 minutes and centrifuged at maximum speed at 4 °C to remove debris. Extracts were dried down in a vacuum dryer and stored at -80 °C. An additional sample was reserved for visual inspection of cell health by confocal light microscopy and for cell counting with a hemocytometer. Three independent assays were conducted in total, with 1–2 replicates per assay. To analyze GMP levels, samples were reconstituted in 50 μL LC-MS grade water and analyzed by HPLC-UV-MS as described in the general procedures and for enzyme inhibition and kinetics assays. The amino acid standards were analyzed in full scan positive mode with mass windows m/z 50–800. GMP peak areas were normalized to the peak area of the internal standard ^13C4, ^15N-threonine or ^13C6, ^15N3-histidine to account for variations in extraction or resuspension volume. The peak areas were then normalized to the average GMP peak area in undrugged controls and multiplied by 100 to obtain the percent GMP.

[10] = tested on: lysate of COS-7 cells expressing human PDE5; design: method as in PMID 18778098; settings: cited from earlier work
[11] = tested on: human PDE5 catalytic domain; design: method as in PMID 16735511; settings: cited from earlier work

- IC50 ([3]; 1 nM PDE5 catalytic domain, 0.3 μM cGMP, 25 °C, 15 min, mean of at least three replicates ± SEM, read-out: IC50): 400 ± 200 nM
- Fold improved potency (fold change in IC50 compared to icariin) [3]: 15 fold
Molecule: COc1ccc(-c2oc3c(CC=C(C)C)c(O)cc(O)c3c(=O)c2OCCO)cc1 [Compound 6, 3-O-(2-Hydroxyethyl)-Icaritin]
- viability at 3 days ([1]; marked reduction in at least one cell line): ≤ 70%
- effect on viability across cell lines [2]: marked reduction in viability of all four cell lines

Molecule: CCCc1nc(C)c2c(=O)[nH]c(-c3cc(S(=O)(=O)N4CCN(CC)CC4)ccc3OCC)nn12 [vardenafil]
- inhibition of PDE6 isoforms [5]: show inhibition of PDE6 isoforms

- IC50 [3]: 1800 ± 800 nM
- Fold improved potency (fold change in IC50 compared to icariin) [3]: 3 fold
Molecule: COc1ccc(-c2oc3c(CC=C(C)C)c(O)cc(O)c3c(=O)c2O)cc1 [Compound 9, Icaritin]
- inhibition of trypsin activity [6]: statistically significant inhibition of trypsin activity (p<0.05)

Molecule: O=c1cc(-c2ccc(O)c(O)c2)oc2cc(O)cc(O)c12 [luteolin, reference compound]
- inhibition of trypsin activity [6]: statistically significant inhibition of trypsin activity (p<0.001)

- Preferred model ([7]; AICc comparison of competitive vs noncompetitive inhibition): Competitive inhibition
- Preferred model ([7]; AICc comparison of competitive vs uncompetitive inhibition): Competitive inhibition
- probability that the competitive inhibition model is correct ([7]; AICc, compared to a noncompetitive or uncompetitive model): > 99%
- Probability it is correct (competitive inhibition) ([7]; AICc, competitive vs noncompetitive inhibition): 99.97%
- Probability it is correct (competitive inhibition) ([7]; AICc, competitive vs uncompetitive inhibition): >99.99%
- specificity for PDE5 over PDE6C [8]: shows specificity for PDE5 over PDE6C
- fold increase in potency compared to the corresponding unglycosylated analog ([3]; 3 vs 6, 5 vs 8): 5 fold
Molecule: COc1ccc(-c2oc3c(CC=C(C)C)c(OC4OC(CO)C(O)C(O)C4O)cc(O)c3c(=O)c2OCCO)cc1 (stereo not drawn) [Compound 3, 3-O-(2-Hydroxyethyl)-Icariside I]
- mode of inhibition ([7]; Lineweaver-Burk plot and AICc analysis): competitive inhibitor; also recorded: inhibits PDE5 competitively
- PDE6C inhibition, statistical significance [8]: do not show any statistically significant PDE6C inhibition
- cellular GMP concentration, % of the GMP concentration in untreated control cells [9]: 9 ± 0.6%
- viability at 3 days, 10 μM [1]: > 70%

- % PDE6C activity remaining ([8]; inhibitor at 50x its PDE5 IC50 (sildenafil 1.5 μM, 3 and 7 5 μM), 14 μM cGMP, 1 hour, mean ± SEM): 78 ± 13%
Molecule: CCCc1nn(C)c2c(=O)[nH]c(-c3cc(S(=O)(=O)N4CCN(C)CC4)ccc3OCC)nc12 [sildenafil, reference compound]
- PDE6C inhibition, statistical significance [8]: do not show any statistically significant PDE6C inhibition
- cellular GMP concentration, % of the GMP concentration in untreated control cells [9]: 7 ± 1%
- viability at 3 days, 10 μM [1]: > 70%
- inhibition of PDE6 isoforms [5]: show inhibition of PDE6 isoforms

Molecule: Icariside II [Compound 1]
- fold improvement in PDE5 inhibition compared to icariin [10]: 34 fold
- IC50 ([10]; lysate of COS-7 cells expressing human PDE5): 160 nM
- mode of inhibition suggested by the crystal structure [11]: binds to the active site as a competitive inhibitor
